Source: PMC12797155 (ACS Pharmacology & Translational Science, 2025)
Where “and” joins values, the source holds several entries; their conditions need not be identical. Equal values may be shown once.

Experiments:
PAR4 [1] = test: Human platelet flow cytometry assay, PAR4 activation (α-thrombin + vorapaxar); assay type: cell-based; details: alpha-thrombin flow cytometry assay, human platelets; PAR4 vs PAR1
Text: (§1) Same as described previously.
(§2) In the flow cytometry experiments, thrombin activates PAR4 on human platelets. […] In the flow cytometry assay, human platelets are stimulated with thrombin in the presence of either a PAR4 antagonist (BMS-3) or a PAR1 antagonist (Vorapaxar). This determines the IC50 of the test compound against PAR1 and PAR4 activation.

PAR4 [2] = biological target: T1, PAR4 (Homo sapiens, UniProt Q96RI0); test: as above; assay type: cell-based; details: human platelets, α-thrombin + vorapaxar; N = 3
T1 sequence (Q96RI0 48-385): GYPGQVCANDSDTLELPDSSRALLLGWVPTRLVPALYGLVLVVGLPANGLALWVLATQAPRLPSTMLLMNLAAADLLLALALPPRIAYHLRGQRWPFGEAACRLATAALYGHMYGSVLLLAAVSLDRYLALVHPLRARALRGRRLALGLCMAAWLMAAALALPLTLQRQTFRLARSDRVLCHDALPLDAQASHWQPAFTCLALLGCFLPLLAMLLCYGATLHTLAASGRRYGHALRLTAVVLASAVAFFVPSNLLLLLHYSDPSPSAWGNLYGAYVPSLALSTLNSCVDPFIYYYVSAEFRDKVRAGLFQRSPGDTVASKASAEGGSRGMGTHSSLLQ
Text: as §1, §2

thrombin = biological target: T2, thrombin (Homo sapiens, UniProt P00734); test: Michaelis-Menten enzyme kinetic analysis of thrombin in the presence of PAR4 antagonists; assay type: biochemical; set-up: unit not given here; details: thrombin in the presence of PAR4 antagonist
T2 construct: Alpha-thrombin was ordered from Enzyme Research Laboratories; purchased Enzyme Research Laboratories (South Bend, IN)
Experimental: (§3) Chromogenic substrate, S-2238, was ordered from DiaPharma (West Chester, OH). Alpha-thrombin was ordered from Enzyme Research Laboratories (South Bend, IN). White, round, clear-bottom 96-well plates were used to run the screen. The plate was read using a BioTek Neo plate reader every minute for 60 min at a wavelength of 405 nm. The substrate control wells were subtracted from the raw counts, and the data was normalized to the thrombin enzyme control wells as a percentage. The percentages were graphed in GraphPad Prism.
To also characterize what type of inhibition was occurring with these compounds, we performed Michaelis–Menten enzyme kinetic analysis. […] This is not a surprising finding, as thrombin is believed to interact with PAR4 only at the active cleft of thrombin. PAR4 lacks the hirudin-like binding domain that PAR1 has, which enables PAR1 to have a higher affinity to thrombin.
2 Thrombin inhibition characterization of PAR4 antagonists. A) Michaelis–Menten plot depicting thrombin enzymatic activity in the presence of various PAR4 antagonists. B) Lineweaver–Burk plot of the Michaelis–Menten plot.

alpha thrombin = biological target: T3, alpha thrombin (Homo sapiens, UniProt P00734); test: Chromogenic thrombin activity assay with substrate S-2238; assay type: biochemical; details: for inhibition at 0.5 µM: read-out: inhibition of thrombin; for IC50: thrombin activity assay, N = 3, read-out: IC50 against thrombin (S-2238 Thrombin Kinetic Assay)
T3 construct: Alpha-thrombin was ordered from Enzyme Research Laboratories; purchased Enzyme Research Laboratories (South Bend, IN)
Experimental: as §3, with “Prism. To investigate thrombin inhibition, we utilized a chromogenic assay with a thrombin substrate, S-2238. Thrombin activity was measured by the production of a visible color change to substrate S-2238. Each assay run included a substrate control, where just substrate was added to the well without thrombin enzyme, an enzyme control (EC), which consisted of thrombin without any inhibitor present, and an inhibitor control (IC), which contained a known thrombin inhibitor, Argatroban.” for “Prism.”

| Compound | preference for PAR4 over PAR1 (PAR4 [1]) | IC50 (PAR4 [2]) | Vmax (thrombin) | inhibition at 0.5 µM (alpha thrombin) | IC50 (alpha thrombin) |
| --- | --- | --- | --- | --- | --- |
| CC1CNc2c(cccc2S(=O)(=O)N[C@@H](CCCNC(=N)N)C(=O)N2CC[C@@H](C)C[C@@H]2C(=O)O)C1 (stereo partly drawn) [Argatroban, reference compound] | no preference for PAR4 over PAR1 | 65.2 nM |  |  |  |
| COc1ccc2cc(-c3cn4nc(SC)sc4n3)oc2c1 [Compound 6PMJ] |  |  | 0.08856 |  |  |
| Cc1nc(NC(=O)c2cc(C(=O)OC(C)(C)C)n(-c3ccccc3)n2)n[nH]1 [Compound 7] |  | 6600 nM | 0.08588 |  |  |
| Cc1cc(C(=O)Nc2nc(-c3cccc(OC(F)F)c3)n[nH]2)nn1-c1ccccc1 [Compound 9] |  |  | 0.0849 |  |  |
| Cn1nc(C(=O)Nc2n[nH]c(-c3c(F)cccc3F)n2)cc1C1CC1 [Compound 12] |  | ~149 nM |  | ~70% | ~71 nM and 70.6 nM |
| O=C(Nc1n[nH]c(-c2ccc(F)cc2F)n1)c1nn(-c2ccccc2)c2c1CCCC2 [Compound 31] |  | ~160 nM | 0.1010 | ~70% | ~1000 nM and 1090 nM |
| COc1cccc(-c2nc(NC(=O)c3nn(-c4ccccc4)c4c3CCCC4)n[nH]2)c1 [Compound 32] |  |  | 0.09616 |  |  |
| Hirugen [reference compound] | no preference for PAR4 over PAR1 |  |  |  |  |
